Experimental data as given in patent publication US7868023B2, “Thiophene sulfoximines, compositions thereof, and methods of treating complement-mediated diseases and conditions” (Janssen Pharmaceutica NV, priority 2005, dated 2011).

What was measured:
activated human C1s = molecular target: T1, activated human C1s (Homo sapiens, UniProt P09871); assay: In vitro inhibition of C1s (Ki determination, Z-Gly-Arg-S-Bzl hydrolysis, DTNB readout); type: biochemical; settings: substrate Z-Gly-Arg-S-Bzl 45 μM, 37° C., pH 7.5
T1 construct: purchased Calbiochem (La Jolla, Calif.)
T1 sequence (P09871 438-688 limits assumed): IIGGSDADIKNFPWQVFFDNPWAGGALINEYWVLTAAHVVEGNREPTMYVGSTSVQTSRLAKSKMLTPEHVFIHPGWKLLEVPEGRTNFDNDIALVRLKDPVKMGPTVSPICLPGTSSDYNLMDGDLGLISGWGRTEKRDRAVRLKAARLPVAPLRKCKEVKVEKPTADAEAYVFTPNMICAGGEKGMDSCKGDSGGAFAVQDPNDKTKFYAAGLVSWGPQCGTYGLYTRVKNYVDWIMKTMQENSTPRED
T1 sequence (P09871 16-437 limits assumed): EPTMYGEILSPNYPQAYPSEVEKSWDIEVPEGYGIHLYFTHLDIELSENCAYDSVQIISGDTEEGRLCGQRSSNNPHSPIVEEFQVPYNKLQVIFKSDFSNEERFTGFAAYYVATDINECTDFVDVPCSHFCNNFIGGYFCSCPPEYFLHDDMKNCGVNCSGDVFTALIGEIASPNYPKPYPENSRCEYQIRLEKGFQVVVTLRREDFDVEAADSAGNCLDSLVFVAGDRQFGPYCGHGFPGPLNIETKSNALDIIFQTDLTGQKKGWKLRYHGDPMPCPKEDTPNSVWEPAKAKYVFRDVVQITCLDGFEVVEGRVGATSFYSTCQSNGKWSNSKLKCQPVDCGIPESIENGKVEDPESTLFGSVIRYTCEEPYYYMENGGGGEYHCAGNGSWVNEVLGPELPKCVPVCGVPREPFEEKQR
Description: Reagents: All buffer salts were obtained from Sigma Chemical Company (St. Louis, Mo.), and were of the highest purity available. DTNB was purchased from Pierce (Rockford, Ill.). Z-Gly-Arg-S-Bzl was purchased from Enzyme Systems Products (Livermore, Calif.). Activated human C1s was purchased from Calbiochem (La Jolla, Calif.).
Ki Determinations All assays were based on the ability of the test compound to inhibit the C1s-catalyzed hydrolysis of the substrate Z-Gly-Arg-S-Bzl, which was observed via a secondary reaction with 5,5′-dithio-bis(2-nitrobenzoic acid) (DTNB). […]
(§1) In a typical Ki determination, into each well of a 96-well plate was pipetted 280 μL of substrate solution, 10 μL of test compound solution, and the plate allowed to thermally equilibrate at 37° C. for 15 minutes. Reactions were initiated by the addition of a 10 μL aliquot of the enzyme, and the absorbance increase at 405 nm was continuously recorded for 15 minutes in a Molecular Devices plate reader. […] The ratio of the velocity (rate of change in absorbance as a function of time) for a sample containing no test compound was divided by the velocity of a sample containing test compound, and was plotted as a function of test compound concentration. The data were fit to a linear regression, and the value of the slope of the line calculated. The inverse of the slope was the experimentally determined Ki value.

human MASP-2 = molecular target: T2, human MASP-2 (Homo sapiens, UniProt O00187); assay: In vitro inhibition of MASP-2 (Ki determination, Z-Gly-Arg-S-Bzl hydrolysis, DTNB readout); type: biochemical; settings: substrate Z-Gly-Arg-S-Bzl 45 μM, 37° C., pH 7.5; Ki app corrected for true Ki
T2 construct: His-tag; made in house; host or cells: Baculovirus expression system in insect cells
Description: Reagents: All buffer salts were obtained from Sigma Chemical Company (St. Louis, Mo.), and were of the highest purity available. DTNB was purchased from Pierce (Rockford, Ill.). Z-Gly-Arg-S-Bzl was purchased from Enzyme Systems Products (Livermore, Calif.). Autoactivated 2-chain human MASP-2 (His-tag, Cys300-Phe686) was produced in-house from a Baculovirus expression system in insect cells.
Ki Determinations All assays were based on the ability of the test compound to inhibit the MASP-2-catalyzed hydrolysis of the substrate Z-Gly-Arg-S-Bzl, which was observed via a secondary reaction with 5,5′-dithio-bis(2-nitrobenzoic acid) (DTNB). […]
as §1, with “of substrate solution followed by 10 μL” for “of substrate solution, 10 μL”, “the plate was allowed to” for “the plate allowed to”, “C. for 10 minutes. Reactions” for “C. for 15 minutes. Reactions”, “line calculated. […]” for “line calculated. The inverse of the slope was the experimentally determined Ki value.”

T2 sequence (O00187 300-686): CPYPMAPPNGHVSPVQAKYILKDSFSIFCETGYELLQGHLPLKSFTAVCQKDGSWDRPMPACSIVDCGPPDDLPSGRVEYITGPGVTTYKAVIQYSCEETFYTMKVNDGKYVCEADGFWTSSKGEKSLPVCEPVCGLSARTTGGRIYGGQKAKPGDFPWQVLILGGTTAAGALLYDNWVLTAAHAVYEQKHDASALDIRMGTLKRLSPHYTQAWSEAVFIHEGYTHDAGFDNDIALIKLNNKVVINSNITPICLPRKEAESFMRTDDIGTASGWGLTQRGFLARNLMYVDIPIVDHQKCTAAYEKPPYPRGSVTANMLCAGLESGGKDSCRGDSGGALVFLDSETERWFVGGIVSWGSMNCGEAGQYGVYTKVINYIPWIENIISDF
T2 sequence (O00187 300-444): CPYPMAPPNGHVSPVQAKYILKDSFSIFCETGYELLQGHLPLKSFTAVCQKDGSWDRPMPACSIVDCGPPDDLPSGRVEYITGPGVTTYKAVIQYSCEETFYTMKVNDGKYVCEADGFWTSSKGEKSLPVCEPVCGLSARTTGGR

Row | Compound | Ki (activated human C1s) [nM] | Ki (human MASP-2) [nM]
1 | CSc1sc(C(=N)N)cc1S(=O)(=NS(=O)(=O)c1cccc([N+](=O)[O-])c1)c1cccc(-c2ccc(NC(=N)N)cc2C)c1 (stereo not drawn) [Example 46, 4-[S-[3-(4-guanidino-6-methyl-phenyl)phenyl]-N-(3-nitrobenzene-sulfonyl)sulfoximino]-5-methylsulfanyl-thiophene-2-carboxamidine bistrifluoroacetate] | 10 | –
2 | CSc1sc(C(=N)N)cc1S(=O)(=NS(=O)(=O)c1cccc(NC(N)=O)c1)c1cccc(-c2c(C)cc(NC(=N)N)cc2N)c1 (stereo not drawn) [Example 18, 4-[S-[3-(2-Amino-4-guanidino-6-methyl-phenyl)phenyl]-N-(3-ureidobenzene-sulfonyl)sulfoxamino]-5-methylsulfanyl-thiophene-2-carboxamidine bistrifluoroacetate] | 11 | 440
